Test results: article PMC8317200 (Journal of medicinal chemistry, 2020)
Residues, ends and D or L forms follow the SMILES beside them. *: point of attachment. Adamantane1carbonyl = O=C(C12CC3CC(CC(C3)C1)C2)*; Fmoc = O=C(OCC1c2ccccc2-c2ccccc21)*; Benzoyl(4-F) = O=C(c1ccc(F)cc1)*; Pyrrolidide = C1CCN(*)C1; Cbz = O=C(OCc1ccccc1)*; OcHex = C1CCC(O*)CC1; OtBu = CC(C)(C)O*; OAll = C=CCO*; X1 = C#CCO*

T1: FGF14:Nav1.6 complex (Homo sapiens, UniProt Q92915)
T1 sequence (Q92915 1-252 isoform Q92915-2): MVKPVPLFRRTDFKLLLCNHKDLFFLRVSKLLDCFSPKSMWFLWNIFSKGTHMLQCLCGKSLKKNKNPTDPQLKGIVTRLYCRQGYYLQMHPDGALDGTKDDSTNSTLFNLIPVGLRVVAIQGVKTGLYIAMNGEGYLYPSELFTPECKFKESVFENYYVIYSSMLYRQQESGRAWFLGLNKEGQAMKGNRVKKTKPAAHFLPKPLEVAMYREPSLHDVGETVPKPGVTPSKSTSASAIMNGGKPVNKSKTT

T2: FGF14 (Homo sapiens, UniProt Q92915)
T2 sequence (Q92915 64-252 isoform Q92915-2): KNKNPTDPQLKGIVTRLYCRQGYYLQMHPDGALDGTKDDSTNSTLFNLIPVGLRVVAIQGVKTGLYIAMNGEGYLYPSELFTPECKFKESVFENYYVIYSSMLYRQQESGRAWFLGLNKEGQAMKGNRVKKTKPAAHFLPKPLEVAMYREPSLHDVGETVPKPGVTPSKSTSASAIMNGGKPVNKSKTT

T3: CLuc-FGF14-1b (human) (UniProt Q92915)
T3 sequence: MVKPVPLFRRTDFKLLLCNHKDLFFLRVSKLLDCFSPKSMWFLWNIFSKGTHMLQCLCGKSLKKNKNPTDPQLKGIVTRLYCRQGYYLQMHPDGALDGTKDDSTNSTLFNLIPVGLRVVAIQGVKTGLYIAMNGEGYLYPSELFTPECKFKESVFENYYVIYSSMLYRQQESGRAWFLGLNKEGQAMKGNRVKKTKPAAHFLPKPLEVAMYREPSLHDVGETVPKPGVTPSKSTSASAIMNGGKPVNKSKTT


Tests used:
FGF14:Nav1.6 complex = molecular target: T1, FGF14:Nav1.6 complex; assay: Split-luciferase complementation assay; format: cell-based; settings: for activity at 50 µM: HEK293, 1 h, read-out: RLVs (%); for Inhibitory activity against FGF14:Nav1.6 complex assembly (in words): 50 μM screening
FGF14 = molecular target: T2, FGF14; assay: Surface plasmon resonance; format: binding; settings: for koff: read-out: koff FGF14; for kon: read-out: kon FGF14
CLuc-FGF14-1b (human) = molecular target: T3, CLuc-FGF14-1b (human); assay: split reporter

| IC50 (CLuc-FGF14-1b (human)) [µM] | efficacy (percent inhibition at the bottom plateau) (CLuc-FGF14-1b (human)) [%] | Molecule | further results |
| --- | --- | --- | --- |
| – | – | COC(=O)[C@@H](NC(=O)[C@H](CC(C)C)NC(=O)[C@@H]1CCCN1C(=O)OCc1ccccc1)C(C)C [Compound 32, Benzyl (S)-2-(((S)-1-(((S)-1-methoxy-3-methyl-1-oxobutan-2-yl)amino)-4-methyl-1-oxopentan-2-yl)carbamoyl)pyrrolidine-1-carboxylate] (Cbz-Pro-Leu-Val-OMe) | activity at 50 µM (FGF14:Nav1.6 complex): > 100% |
| – | – | COC(=O)[C@@H](NC(=O)[C@H](CCC(=O)OC(C)(C)C)NC(=O)[C@H](CC(C)C)NC(=O)[C@@H]1CCCN1C(=O)OCC1c2ccccc2-c2ccccc21)C(C)C [Compound 21b, (9H-Fluoren-9-yl)methyl (S)-2-(((S)-1-(((S)-5-(tert-butoxy)-1-(((S)-1-methoxy-3-methyl-1-oxobutan-2-yl)amino)-1,5-dioxopentan-2-yl)amino)-4-methyl-1-oxopentan-2-yl)carbamoyl)pyrrolidine-1-carboxylate] (Fmoc-PLE(OtBu)V-OMe) | Inhibitory activity against FGF14:Nav1.6 complex assembly (in words) (FGF14:Nav1.6 complex): markedly reduced inhibitory activity |
| – | – | CC(C)C[C@H](NC(=O)[C@@H]1CCCN1C(=O)OCc1ccccc1)C(=O)N[C@H](C(N)=O)C(C)C [Compound 31, Benzyl (S)-2-(((S)-1-(((S)-1-amino-3-methyl-1-oxobutan-2-yl)amino)-4-methyl-1-oxopentan-2-yl)carbamoyl)pyrrolidine-1-carboxylate] (Cbz-Pro-Leu-Val-NH2) | activity at 50 µM (FGF14:Nav1.6 complex): > 100% |
| – | – | COC(=O)CC[C@H](NC(=O)[C@H](CC(C)C)NC(=O)[C@@H]1CCCN1C(=O)OCc1ccccc1)C(=O)OC(C)(C)C [Compound 30, 1-(tert-Butyl) 5-methyl ((benzyloxy)carbonyl)-L-prolyl-L-leucyl-L-glutamate] (Cbz-Pro-Leu-Glu(OMe)-OtBu) | activity at 50 µM (FGF14:Nav1.6 complex): > 100% |
| – | – | C=CCOC(=O)[C@@H](NC(=O)[C@H](CCC(=O)OC(C)(C)C)NC(=O)[C@H](CC(C)C)NC(=O)[C@@H]1CCCN1C(=O)OCc1ccccc1)C(C)C [Compound 19k, Benzyl (S)-2-(((S)-1-(((S)-1-(((S)-1-(allyloxy)-3-methyl-1-oxobutan-2-yl)amino)-5-(tert-butoxy)-1,5-dioxopentan-2-yl)amino)-4-methyl-1-oxopentan-2-yl)carbamoyl)pyrrolidine-1-carboxylate] (Cbz-PLE(OtBu)V-OAll) | Binding by PTS and SPR (in words) (FGF14; PTS and SPR): negligible binding |
| – | – | CC(C)C[C@H](NC(=O)[C@@H]1CCCN1C(=O)C12CC3CC(CC(C3)C1)C2)C(=O)N[C@@H](CCC(=O)OC(C)(C)C)C(=O)N[C@H](C(=O)OC1CCCCC1)C(C)C [Compound 23e, tert-Butyl (4S)-4-((2S)-2-((2S)-1-((1R,3R)-adamantane-1-carbonyl)pyrrolidine-2-carboxamido)-4-methylpentanamido)-5-(((S)-1-(cyclohexyloxy)-3-methyl-1-oxobutan-2-yl)amino)-5-oxopentanoate] (Adamantane1carbonyl-PLE(OtBu)V-OcHex) | koff (FGF14): 0.0139 s⁻¹; kon (FGF14): 7350 M⁻¹ s⁻¹ |
| – | – | CC(C)C[C@H](NC(=O)[C@@H]1CCCN1C(=O)C12CC3CC(CC(C3)C1)C2)C(=O)N[C@@H](CCC(=O)OC(C)(C)C)C(=O)N[C@H](C(=O)OC(C)(C)C)C(C)C [Compound 23d, tert-Butyl (4S)-4-((2S)-2-((2S)-1-((1R,3R)-adamantane-1-carbonyl)pyrrolidine-2-carboxamido)-4-methylpentanamido)-5-(((S)-1-(tert-butoxy)-3-methyl-1-oxobutan-2-yl)amino)-5-oxopentanoate] (Adamantane1carbonyl-PLE(OtBu)V-OtBu) | koff (FGF14): 0.0058 s⁻¹; kon (FGF14): 1620 M⁻¹ s⁻¹ |
| – | – | C#CCOC(=O)[C@@H](NC(=O)[C@H](CCC(=O)OC(C)(C)C)NC(=O)[C@H](CC(C)C)NC(=O)[C@@H]1CCCN1C(=O)C12CC3CC(CC(C3)C1)C2)C(C)C [Compound 23b, tert-Butyl (4S)-4-((2S)-2-((2S)-1-((1R,3R)-adamantane-1-carbonyl)pyrrolidine-2-carboxamido)-4-methylpentanamido)-5-(((S)-3-methyl-1-oxo-1-(prop-2-yn-1-yloxy)butan-2-yl)amino)-5-oxopentanoate] (Adamantane1carbonyl-PLE(OtBu)V-X1) | kon (FGF14): 25800 M⁻¹ s⁻¹ |
| – | – | CC(C)C[C@H](NC(=O)[C@@H]1CCCN1C(=O)c1ccc(F)cc1)C(=O)N[C@@H](CCC(=O)OC(C)(C)C)C(=O)N[C@H](C(N)=O)C(C)C [Compound 13f, tert-Butyl (S)-5-(((S)-1-amino-3-methyl-1-oxobutan-2-yl)amino)-4-((S)-2-((S)-1-(4-fluorobenzoyl)pyrrolidine-2-carboxamido)-4-methylpentanamido)-5-oxopentanoate] ({Benzoyl(4-F)}-PLE(OtBu)V-NH2) | Inhibitory activity against FGF14:Nav1.6 complex assembly (in words) (FGF14:Nav1.6 complex): did not show any inhibitory activity; activity at 50 µM (FGF14:Nav1.6 complex): 123 ± 3% |
| – | – | CC(C)C[C@H](NC(=O)[C@@H]1CCCN1C(=O)OCc1ccccc1)C(=O)N[C@@H](CCC(=O)OC(C)(C)C)C(=O)N[C@H](C(=O)N1CCCC1)C(C)C [Compound 19e, Benzyl (S)-2-(((S)-1-(((S)-5-(tert-butoxy)-1-(((S)-3-methyl-1-oxo-1-(pyrrolidin-1-yl)butan-2-yl)amino)-1,5-dioxopentan-2-yl)amino)-4-methyl-1-oxopentan-2-yl)carbamoyl)pyrrolidine-1-carboxylate] (Cbz-PLE(OtBu)V-Pyrrolidide) | koff (FGF14): 0.000991 s⁻¹; kon (FGF14): 461 M⁻¹ s⁻¹ |
| 22.5 | 83.3 | Adamantane1carbonyl-PLE(OtBu)V-{O‑propyl} [compound 23g] | – |
| 11.5 | 95.5 | Adamantane1carbonyl-PLE(OtBu)V-{O‑allyl} [compound 23a] | – |
| 13.3 | 82.3 | Adamantane1carbonyl-PLE(OtBu)V-OEt (SMILES CCOC(=O)[C@@H](NC(=O)[C@H](CCC(=O)OC(C)(C)C)NC(=O)[C@H](CC(C)C)NC(=O)[C@@H]1CCCN1C(=O)C12CC3CC(CC(C3)C1)C2)C(C)C) [compound 23f] | – |
| 33.9 | 92.1 | Adamantane1carbonyl-PLE(OtBu)V-OtBu (SMILES CC(C)C[C@H](NC(=O)[C@@H]1CCCN1C(=O)C12CC3CC(CC(C3)C1)C2)C(=O)N[C@@H](CCC(=O)OC(C)(C)C)C(=O)N[C@H](C(=O)OC(C)(C)C)C(C)C) [compound 23d] | – |
| 20.4 | 96.1 | Adamantane1carbonyl-PLE(OtBu)V-OMe (SMILES COC(=O)[C@@H](NC(=O)[C@H](CCC(=O)OC(C)(C)C)NC(=O)[C@H](CC(C)C)NC(=O)[C@@H]1CCCN1C(=O)C12CC3CC(CC(C3)C1)C2)C(C)C) [compound 21a] | – |
| 35.3 | 69.9 | Adamantane1carbonyl-PLE(OtBu)V-{O‑cyclohexyl} [compound 23e] | – |
| 13.8 | 96.6 | Adamantane1carbonyl-PLE(OtBu)V-{O‑propargyl} [compound 23b] | – |
